Test results published in PMC9530963, “A cathelicidin antimicrobial peptide from Hydrophis cyanocinctus inhibits Zika virus infection by downregulating expression of a viral entry factor” (The Journal of Biological Chemistry, 2022).

Tested on: AXL
Assay: Effect of AC and PKA on Hc-CATH-induced AXL downregulation in A549 cells
Format: cell-based, Homo sapiens
Settings: 1 h pre-incubation of A549 cells, then Hc-CATH 5 μM, 24 h, Western blot
Description: Figure 6 Hc-CATH downregulates AXL via inhibiting COX-2/PGE2/AC/PKA pathway.A, effect of Hc-CATH on COX-2 protein level. A549 cells were incubated with Hc-CATH (1.25, 2.5, or 5 μM) or PBS (solvent of Hc-CATH) at 37 °C for 24 h, COX-2 protein level was examined by Western blot (upper panel) and analyzed by ImageJ (lower panel). B, effect of Hc-CATH on the enzymatic activity of COX-2. Hc-CATH (1.25, 2.5, 5, and 10 μM) or PBS was incubated with COX-2. After incubation at 37 °C for 10 min, the enzymatic activity of COX-2 was detected by enzyme activity inhibitor screening kit. Celecoxib (COX-2 inhibitor, 100 nM) was used as positive control. C, effect of Hc-CATH on PGE2 production. A549 cells were incubated with Hc-CATH (5 μM) at 37 °C. After incubation for 24 h, the level of PGE2 in the cell supernatant was detected by ELISA. D and E, effect of AC (D) and PKA (E) on Hc-CATH-induced AXL downregulation. A549 cells were incubated with forskolin (FSK, agonist of AC, 10 μM) or H89 (inhibitor of PKA, 5 μM) at 37 °C. After incubation for 1 h, the culture media were removed, cells were washed three times with PBS, and fresh culture media were added to cells in the presence of Hc-CATH (5 μM). After incubation for 24 h, AXL protein level was examined by Western blot (upper panel of D and E) and analyzed by ImageJ (lower panel of D and E). ns, not significant, ∗∗p < 0.01, and ∗∗∗p < 0.001. […]

SMILES	effect on Hc-CATH-induced AXL downregulation (FSK 10 μM)	effect on Hc-CATH-mediated AXL downregulation (H89 5 μM)
C=C[C@@]1(C)CC(=O)[C@]2(O)[C@@]3(C)[C@@H](O)CCC(C)(C)[C@@H]3[C@H](O)[C@H](OC(C)=O)[C@@]2(C)O1 [FSK, forskolin]	effectively counteracted the Hc-CATH-induced AXL downregulation	–
O=S(=O)(NCCNC/C=C/c1ccc(Br)cc1)c1cccc2cnccc12 [H89]	–	significantly facilitated Hc-CATH-mediated AXL downregulation
